# Laboratory results reported in US8828678B2, “Self-immolative probes for enzyme activity detection” (Enzo Life Sciences, Inc., priority 2010, dated 2014).
# Tests used:
# Jurkat cells [1] = assay: Detection of hypoxia using flow cytometry; format: cell-based, human; conditions: 5 μM CD-1, 1 μM CD-6, versus vehicle-treated loaded cells
# Description: HeLa and U-2 OS cells were cultured as described in Example 7. Human Jurkat T-cell leukemia cells (the A3 subclone) was obtained from ATCC and routinely cultured in RPMI-1640 medium (ATCC) supplemented with 10% fetal bovine serum (ATCC) and 100 U/ml penicillin+100 μg/ml streptomycin (Sigma-Aldrich). Cell cultures were maintained in an incubator at 37° C., with 5% CO2 atmosphere. CD-1, CD-4 and CD-6 self-immolative hypoxia probes were prepared as described in Example 8. All hypoxia inducers stocks were prepared as described in Example 7.
# The day before the experiment, HeLa and U-2 OS cells were seeded in 6-well tissue culture plates at a density 5×10^5 cells/well. […] Post-treatment, the adherent cells (HeLa and U-2 OS) were collected by trypsinization, re-suspended in 0.5 mL of fresh PBS and analyzed using flow cytometry. Jurkat cells were analyzed without washing.
# Flow cytometry experiments were performed using a FACS Calibur benchtop flow cytometer (BD Biosciences) equipped with a blue (488 nm) laser, and the fluorescence was recorded in the FITC (530/30 filter), PE (585/42 filter) and PerCP (670 LP filter) channels. Hypoxic cells were detected by detecting increases in fluorescence. The degree of hypoxia (Khyp) can be quantified by using Kolmogorov-Smirnov statistics (Young, 1977) or the following formula: Khyp=(MFIhyp−MFIcon)/MFIhyp, […]
# Jurkat cells [2] = assay: Combined detection of hypoxia and superoxide in live cells by flow cytometry; format: cell-based, human; conditions: CD-1 5 μM in combination with superoxide detection reagent, flow cytometry
# Description: HeLa, U-2 OS, and Jurkat cell lines were cultured as described in Examples 7 and 9. Stock solutions of the probes and inhibitors were prepared as described in Examples 7 and 10.
# The day before the experiment, HeLa and U-2 OS cells were seeded in 6-well tissue culture plates at a density of 5×10^5 cells/well. Jurkat cells were collected in logarithmic phase of growth and aliquoted at a density of 5×10^5 cells/sample. On the day of the experiment, the cells were preloaded with either hypoxia or ROS-detecting probes only or with the combination of hypoxia and ROS-detecting probes with compatible spectral characteristics. Samples stained with single hypoxia probes or with two ROS-detecting probes were made to validate data obtained with the combination of hypoxia and redox probes. The probes used in the experiment and their final concentrations in cell culture medium were as follows: CD-1(5 μM) and CD-6 (1 μM), DCFDA, peroxide/peroxynitrite/hydroxyl detection probe and HE, specific superoxide detection reagent (1 μM for both redox probes). Hypoxia was induced in the cells as described in Example 7. Additionally, cells were treated with different general and specific ROS inducers and stained with ROS-detecting probes to control ROS production and staining. Post-treatment, the adherent cells (HeLa and U-2 OS) were collected by trypsinization, re-suspended in 0.5 mL of fresh PBS and analyzed using flow cytometry. Jurkat cells were analyzed without washing. Flow cytometry experiments were performed using an FACS Calibur benchtop flow cytometer (BD Biosciences) equipped with a blue (488 nm) laser, and the fluorescence was recorded in the FITC (530/30 filter), PE (585/42 filter) and PerCP (670 LP filter) channels. Data were collected uncompensated, also compensation corrections were performed using unstained cells, and cells stained with each single dye separately (CD-1, CD-6, DCFDA or HE). To quantify data, quadrant gates were set using untreated samples.
smiles,measurement,setting,value
O=C(Nc1ccc2c(c1)Oc1cc(NC(=O)N3CCOCC3)ccc1C21OC(=O)c2ccccc21)OCc1ccc([N+](=O)[O-])cc1 (centres unmarked) [CD-1],fluorescence in Jurkat cells treated with chemical hypoxia inducers or subjected to anoxia,Jurkat cells [1],fluorescence increase
same,population of green positive cells in hypoxia-induced Jurkat samples,Jurkat cells [2],increased population of green positive cells
